Values joined by “and” are separate entries in the source; they are usually repeats but may differ in a detail not shown here. Equal entries are not always repeated. Where two headings read alike, the source gives them in different places.
Columns and labels:
[1] = tested on: hot plate pain threshold of mice; assay: hot plate pain threshold of mice; type: in vivo; settings: for pain threshold(s) 0 h: 0 h (base threshold before administration); for pain threshold(s) 0.5 h: 0.5 h after administration; for pain threshold(s) 1 h: 1 h after administration
Experimental: On the basis of preliminary test, 90 healthy Kunming species of Mus musculus albus are selected, female, weight 18˜22 g, […], and each group of 10 mice, said tested groups comprising:
Each group of animals is pasted for 12 h, but drinking ad libitum. Mice are placed on a homoiothermal hot plate (55±0.5[…]), and the time of occurrence of licking foot is recorded as pain threshold. Appropriate mice (whose reaction time of pain is less than 60 seconds) are selected and randomly divided into groups, and pain thresholds are measured twice before administration and the average value is used as base pain threshold. At 0.5 h and 1 hour after intragastric administration of corresponding drugs, the pain threshold of each mouse is measured (if there are no reaction of pain in 60 seconds, then the threshold is considered as 60 second).
Using Microsoft EXCEL software, the average value of pain threshold of each tested group and the average value of control group are performed t-test analysis, and P<0.05 is considered as statistically significant difference.

[2] = tested on: auricle tumefaction of mice caused by xylene; assay: auricle tumefaction of mice caused by xylene; type: in vivo; settings: 3 h after xylene
Experimental: 90 healthy Kunming species of Mus musculus albus are selected, male, weight 18˜22 g, totally 9 tested groups, and each group of 10 mice, said tested groups comprising:
At 0.5 h before modeling, groups (8) and (9) are administrated tested drugs, and other groups are administrated tested drugs at 1 h before modeling. During modeling, the right ears of mice are coated with xylene at concentration of 30 μl/per ear to inflame the ear, and the left ears are performed no treatment. Once 3 h after coating xylene, the animals are sacrificed, and two ears of each mouse are cut, and ear wafers are obtained by making holes at the same positions of ears with puncher with diameter of 8 mm, and then are weighted via an electronic balance.
The tumefaction degree refers to the weight difference of the weight of inflamed ear wafer minus non-inflamed ear wafer. The tumefaction rate tumefaction degree/the weight of normal ear wafer×100‰ The average value of the tumefaction degree and tumefaction rate of each tested group is compared, so as to obtain the ability of anti-inflammation of each tested drug.
Using Microsoft EXCEL software, the average value of tumefaction degree of each tested group and the average value of control group are analyzed by means of t-test, and P<0.05 is considered as statistically significant difference.

[3] = background statement; cited from earlier work
[4] = pharmacokinetic study in rats of ig administration; type: in vivo
[5] = tested on: hot plate pain threshold of mice; assay: hot plate pain threshold of mice; type: in vivo; settings: 40 mg/kg ip, 0 h (base threshold before administration)
[6] = ig 50 mg/kg, individual animals A-F, listed as R-type isomer

For `CC(C(=O)O)c1ccc2c(c1)CC(=O)c1ccccc1S2` (racemic) [RS, 10,11-dihydro-alpha-methyl-10-oxo-dibenzo[b,f]tiazem-2-acetic acid, reference compound], the “pain threshold(s) 0 h” value ([1]; 40 mg/kg ig) was 12.8 ± 3.7 s, the “pain threshold(s) 0.5 h” value ([1]; 40 mg/kg ig) was 9.9 ± 2.7 s and the “pain threshold(s) 1 h” value ([1]; 40 mg/kg ig) was 10.7 ± 5.7 s. For the same molecule, the “pain threshold(s) 0 h” value ([1]; 80 mg/kg ig) was 12.7 ± 3.1 s, the “pain threshold(s) 0.5 h” value ([1]; 80 mg/kg ig) was 11.7 ± 5.2 s and the “pain threshold(s) 1 h” value ([1]; 80 mg/kg ig) was 9.6 ± 3.5 s. For the same molecule, the “tumefaction degree” value ([2]; 10 mg/kg ig) was 5.2 ± 2.9 mg, the “tumefaction degree” value ([2]; 20 mg/kg ig) was 3.7 ± 2.5 mg and the “abirritation, times more than Indomethacin, Diclofenac Sodium, Ketoprofen, mefenamic acid” value [3] was 3-28 times.

For `C[C@@H](C(=O)O)c1ccc2c(c1)CC(=O)c1ccccc1S2` [R, R-10,11-dihydro-alpha-methyl-10-oxo-dibenzo[b,f]tiazem-2-acetic acid], the “transformation between R-isomer and S-isomer during monitoring of blood drug level” value ([4]; ig) was “No transformation between R-isomer and S-isomer is detected”, the “AUC(0-48)” value [4, 6] was 723.9 µg·h/mL and 239.0 µg·h/mL and 330.6 µg·h/mL and 814.3 µg·h/mL and 324.2 µg·h/mL and 1336.0 µg·h/mL and the “AUG(0-∞)” value [4, 6] was 772.8 mg/L*h and 337.7 mg/L*h and 818.7 mg/L*h and 325.6 mg/L*h and 1374.1 mg/L*h. The CLz/F [4, 6] was 0.1 L/h/kg (3×) and 0.2 L/h/kg (2×) and 0.0 L/h/kg, the Cmax [4, 6] was 260.8 µg/mL and 98.9 µg/mL and 67.8 µg/mL and 223.1 µg/mL and 131.5 µg/mL and 184.2 µg/mL and the “MRT(0-48)” value [4, 6] was 7.4 h and 2.2 h and 9.1 h and 5.4 h and 5.0 h and 10.3 h. The Tmax [4, 6] was 1.0 h (2×) and 0.5 h (2×) and 0.3 h (2×), the t1/2z [4, 6] was 10.0 h and 2.2 h and 9.8 h and 7.8 h and 4.9 h and 9.6 h and the “AUG(0-∞) Mean” value ([4]; ig 50 mg/kg, mean of A-F) was 647.5 mg/L*h. For the same molecule, the “CLz/F Mean” value ([4]; ig 50 mg/kg, mean of A-F) was 0.1 L/h/kg, the “t1/2z Mean” value ([4]; ig 50 mg/kg, mean of A-F) was 7.4 h and the AUC(0-t) ([4]; rat, plasma, po, 50 mg/kg, ig 50 mg/kg, mean of A-F, read-out: AUC(0-48) Mean) was 628 µg·h/mL. The Cmax ([4]; rat, plasma, po, 50 mg/kg, ig 50 mg/kg, mean of A-F, read-out: Cmax Mean) was 161 µg/mL, the MRT last ([4]; rat, plasma, po, 50 mg/kg, ig 50 mg/kg, mean of A-F, read-out: MRT(0-48) Mean) was 6.6 h and the Tmax ([4]; rat, plasma, po, 50 mg/kg, ig 50 mg/kg, mean of A-F, read-out: Tmax Mean) was 0.6 h. The Vd/F ([4]; rat, plasma, po, 50 mg/kg, ig 50 mg/kg, mean of A-F, read-out: Vz/F Mean) was 1 L/kg, the “pain threshold(s) 0 h” value [5] was 15.2 ± 15.1 s and the “pain threshold(s) 0 h” value ([1]; 40 mg/kg ig) was 17.6 ± 13.8 s. For the same molecule, the “pain threshold(s) 0.5 h” value ([1]; 40 mg/kg ig) was 12.0 ± 7.8 s, the “pain threshold(s) 0 h” value ([1]; 80 mg/kg ig) was 21.5 ± 15.5 s and the “pain threshold(s) 1 h” value ([1]; 80 mg/kg ig) was 17.5 ± 12.3 s. For the same molecule, the “pain threshold(s) 0 h” value ([1]; 160 mg/kg ig) was 22.0 ± 4.9 s, the “pain threshold(s) 0.5 h” value ([1]; 160 mg/kg ig) was 24.1 ± 15.1 s and the “pain threshold(s) 1 h” value ([1]; 160 mg/kg ig) was 27.3 ± 11.9 s. The “tumefaction degree” value ([2]; 20 mg/kg ip) was 3.5 ± 2.0 mg, the “tumefaction degree” value ([2]; 40 mg/kg ig) was 3.8 ± 2.8 mg and the “tumefaction degree” value ([2]; 40 mg/kg ip) was 2.3 ± 1.8 mg. The “tumefaction degree” value ([2]; 80 mg/kg ig) was 2.5 ± 1.4 mg.

For `C[C@H](C(=O)O)c1ccc2c(c1)CC(=O)c1ccccc1S2` [S, S-10,11-dihydro-alpha-methyl-10-oxo-dibenzo[b,f]tiazem-2-acetic acid], the “pain threshold(s) 0 h” value ([1]; 40 mg/kg ig) was 12.9 ± 5.0 s, the “pain threshold(s) 0.5 h” value ([1]; 40 mg/kg ig) was 10.8 ± 2.7 s and the “pain threshold(s) 1 h” value ([1]; 40 mg/kg ig) was 10.6 ± 4.6 s. For the same molecule, the “pain threshold(s) 0 h” value ([1]; 80 mg/kg ig) was 13.6 ± 9.6 s, the “pain threshold(s) 0.5 h” value ([1]; 80 mg/kg ig) was 12.7 ± 6.9 s and the “pain threshold(s) 1 h” value ([1]; 80 mg/kg ig) was 7.9 ± 1.8 s. For the same molecule, the “tumefaction degree” value ([2]; 10 mg/kg ig) was 4.9 ± 2.3 mg and the “tumefaction degree” value ([2]; 20 mg/kg ig) was 3.1 ± 3.2 mg.
